Assay results taken from patent US6436939B2, “Method for using 2-aryloxyalkylaminobenzoxazoles and 2-aryloxyalkylaminobenzothiazoles as H3 antagonists” (Ortho-McNeil Pharmaceutical, Inc., priority 2000, dated 2002).
Counter-ions that a name gives are not always drawn.

System: not given
Assay: not given
Details: not given

SMILES | melting point
C(=C\c1nc2ccccc2o1)/c1ccc(OCCCN2CCCCC2)cc1 (as salt: HCl) [Example 4, (E)-2-[2-[4-(3-Piperidinopropoxy)phenyl]ethenyl]benzoxazole] | 127 to 128 °C
C(=C\c1nc2ccccc2o1)/c1ccc(OCCCCN2CCCCC2)cc1 (as salt: HCl) [Example 6, (E)-2-[2-(4-Piperidinobutoxyphenyl)ethenyl]benzoxazole] | 230 to 232 °C
CCN(CC)CCCCOc1ccc(/C=C/c2nc3ccccc3o2)cc1 (as salt: HCl) [Example 7, (E)-2-[2-(4-Diethylaminobutoxyphenyl)ethenyl]benzoxazole] | 219 to 220 °C
C(=C\c1nc2ccccc2o1)/c1ccc(OCCCCN2CCCC2)cc1 (as salt: HCl) [Example 9, (E)-2-[2-(4-Pyrrolinobutoxyphenyl)ethenyl]benzoxazole] | 229 to 232 °C

Now from value to compound:

melting point | SMILES
215 to 217 °C | C(=C\c1nc2ccccc2s1)/c1ccc(OCCCN2CCCCC2)cc1 (as salt: HCl) [Example 3, (E)-2-[2-(4-Piperidinopropoxyphenyl)ethenyl]benzothiazole]
225 to 226 °C | CCN(CC)CCCOc1ccc(/C=C/c2nc3ccccc3o2)cc1 (as salt: HCl) [Example 8, (E)-2-[2-(4-Diethylaminopropoxyphenyl)ethenyl]benzoxazole]
142 to 143 °C | CCCN(CCC)CCCOc1ccc(-c2nc3ccccc3s2)cc1 (as salt: HCl) [Example 11, 2-(4-Dipropylaminopropoxyphenyl)benzothiazole]

Target: T1, human histamine H3 receptor (Homo sapiens, UniProt Q9Y5N1)
T1 construct: expressed in transfected cells; membranes prepared
Assay: [3H]-N-methylhistamine binding to membranes of H3 receptor-expressing SK-N-MC cells
Details: 0.8 nM [3H]-N-methylhistamine, 45 minutes at 25° C., SK-N-MC cell membranes; KI from IC50 with KD 800 pM
Procedure: In the present invention receptor binding was determined using the human histamine H3 receptor (See Lovenberg et al Mol. Pharmacol. 1999, 1107). Screening using the human receptor is particularly important for the identification of new therapies for the treatment of human disease. Conventional binding assays for example are determined using rat synaptosomes (Garbarg et al J. Pharmacol. Exp. Ther. 1992, 263, 304), rat cortical membranes (West et al Mol. Pharmacol. 1990, 610), and guinea pig brain (Korte et al Biochem. Biophys. Res. Commun. 1990, 978). Only limited studies have been performed previously using human tissue but these allude to significant differences in the pharmacology of rodent and primate receptors (West et al Eur. J. Pharmacol. 1999, 233).
A 10 cm tissue culture dish with a confluent monolayer of SK-N-MC cells was split two days prior to transfection. Using sterile technique the media was removed and the cells were detached from the dish by the addition of trypsin. One fifth of the cells were then placed onto a new 10 cm dish. Cells were grown in a 37° C. incubator with 5% CO2 in Minimal Essential Media Eagle with 10% Fetal Bovine Serum. After two days cells were approximately 80% confluent. These were removed from the dish with trypsin and pelleted in a clinical centrifuge. The pellet was then re-suspended in 400 μL complete media and transferred to an electroporation cuvette with a 0.4 cm gap between the electrodes (Bio-Rad #165-2088). One microgram supercoiled H3 receptor CDNA was added to the cells and mixed. The voltage for the electroporation was set at 0.25 kV, the capacitance is set at 960 μF.
After electroporation the cells were diluted into 10 mL complete media and plated onto four 10 cm dishes. Due to the variability in the efficiency of electroporation, four different concentrations of cells were plated. The ratios used were: 1:20, 1:10, and 1:5, with the remainder of the cells being added to the fourth dish. The cells were allowed to recover for 24 hours before adding the selection media (complete media with 600 μg/ml G418). After 10 days dishes were analyzed for surviving colonies of cells. Dishes with well-isolated colonies were used. Cells from individual colonies were isolated and tested. SK-N-MC cells were used because they give efficient coupling for inhibition of adenylate cyclase. The clones that gave the most robust inhibition of adenylate cyclase in response to histamine were used for further study.
Cell pellets from histamine H3 receptor-expressing SK-N-MC cells were homogenized in 20 mM TrisHCl/0.5 mM EDTA. Supernatants from a 800 g spin were collected, reccentrifuged at 30,000 g for 30 minutes. Pellets were rehomogenized in 50 mM Tris/5 mM EDTA (pH 7.4). Membranes were incubated with 0.8 nM [^3H]-N-methylhistamine plus/minus test compounds for 45 minutes at 25° C. and harvested by rapid filtration over GF/C glass fiber filters (pretreated with 0.3% polyethylenimine) followed by four washes with ice cold buffer. Filters were dried, added to 4 mL scintillation cocktail and then counted on a liquid scintillation counter. Non-specific binding was defined with 10 μM histamine according to Chen and Prusoff, Biochem. Pharmacol. 1973, 22:3099. KI values were calculated based on a KD of 800 pM and a ligand concentration ([L]) of 800 pM according to the formula: […]
KI values are provided in the examples above.

T1 sequence (Q9Y5N1 whole entry): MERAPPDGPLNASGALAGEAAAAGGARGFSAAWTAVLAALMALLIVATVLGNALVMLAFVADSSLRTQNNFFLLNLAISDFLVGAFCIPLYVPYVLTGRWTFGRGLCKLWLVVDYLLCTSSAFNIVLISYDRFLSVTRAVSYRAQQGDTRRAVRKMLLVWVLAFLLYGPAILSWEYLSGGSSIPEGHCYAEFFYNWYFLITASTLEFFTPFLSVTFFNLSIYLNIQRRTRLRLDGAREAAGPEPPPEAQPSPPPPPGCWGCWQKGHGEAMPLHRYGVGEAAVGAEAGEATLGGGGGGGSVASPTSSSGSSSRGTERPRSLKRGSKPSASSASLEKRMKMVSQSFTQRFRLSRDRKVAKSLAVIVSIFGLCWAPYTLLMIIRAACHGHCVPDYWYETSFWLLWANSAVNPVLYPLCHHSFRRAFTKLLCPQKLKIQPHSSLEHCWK

SMILES | Ki
C(=C\c1nc2ccccc2s1)/c1ccc(OCCCN2CCCCC2)cc1 [Example 3, (E)-2-[2-(4-Piperidinopropoxyphenyl)ethenyl]benzothiazole] | 15 nM
C(=C\c1nc2ccccc2o1)/c1ccc(OCCCN2CCCCC2)cc1 [Example 4, (E)-2-[2-[4-(3-Piperidinopropoxy)phenyl]ethenyl]benzoxazole] | 13 nM
C(=C\c1nc2ccccc2o1)/c1ccc(OCCCCN2CCCCC2)cc1 [Example 6, (E)-2-[2-(4-Piperidinobutoxyphenyl)ethenyl]benzoxazole] | 34 nM
CCN(CC)CCCCOc1ccc(/C=C/c2nc3ccccc3o2)cc1 [Example 7, (E)-2-[2-(4-Diethylaminobutoxyphenyl)ethenyl]benzoxazole] | 48 nM
CCN(CC)CCCOc1ccc(/C=C/c2nc3ccccc3o2)cc1 [Example 8, (E)-2-[2-(4-Diethylaminopropoxyphenyl)ethenyl]benzoxazole] | 31 nM
C(=C\c1nc2ccccc2o1)/c1ccc(OCCCCN2CCCC2)cc1 [Example 9, (E)-2-[2-(4-Pyrrolinobutoxyphenyl)ethenyl]benzoxazole] | 17 nM
CCCN(CCC)CCCOc1ccc(-c2nc3ccccc3s2)cc1 [Example 11, 2-(4-Dipropylaminopropoxyphenyl)benzothiazole] | 173 nM
CCCN(CCC)CCCCOc1c(C)cc(/C=C/c2nc3ccccc3s2)cc1C [Example 12, (E)-2-[2-(3,5-Dimethyl-4-dipropylaminobutoxyphenyl)ethenyl]benzothiazole] | 1000 nM
